Source: patent publication US8017780B1, “Therapeutic compounds and uses thereof” (Myrexis, Inc., priority 2008, dated 2011)
pIC50: −log10 of the molar value.

Biological target: T1, purified human Hsp90
T1 construct: purified human Hsp90 (Stressgen, SPP-770)
Assay: Hsp90 binding assay: displacement of BODIPY-labeled geldanamycin by fluorescence polarization
Conditions: BODIPY-GM 10 nM, purified human Hsp90 30 nM, overnight at room temperature; read-out: GM Displacement From Purified Hsp90 measured by FP
Experimental: The binding of exemplary compounds to purified Hsp90 can be assayed by measuring the displacement of BODIPY-labeled geldanamycin (BODIPY-GM) from purified human Hsp90, using a fluorescence polarization assay adapted from Kim et al. (Journal of Biomolecular Screening […]. Compound dilutions (in 100% DMSO) are added to black-bottom 96-well plates (Greiner; 2% DMSO final), and equal volumes of BODIPY-GM (10 nM final) and purified human Hsp90 (Stressgen, SPP-770; 30 nM final) in assay buffer (20 mM HEPES-KOH pH 7.3, 50 mM KCl, 5 mM MgCl2, 20 mM Na2MoO4, 0.01% NP-40, 0.1 mg/mL bovine gamma globulin [Invitrogen, P2045], 2 mM DTT) are added sequentially to yield a final volume of 50 microliters. Plates are incubated overnight at room temperature. Parallel and perpendicular fluorescence measurements are read (LJL BioSystems Analyst AD plate reader) at excitation/emission wavelengths of 485/530 nm. Background fluorescence (buffer only) is subtracted, and fluorescence polarization (FP) values, expressed in mP units, are calculated from parallel and perpendicular fluorescence readings as follows: FP=(parallel−perpendicular)/(parallel+perpendicular)*1000.
Percent inhibition is calculated by normalizing the FP values to those obtained in parallel reactions containing DMSO and subtracting these normalized values from 100%. Intrinsic compound fluorescence is independently monitored, and FP data points confounded by compound fluorescence are excluded from the analysis.

| Compound | pIC50 |
| --- | --- |
| Nc1nccc2c1nc(Sc1cc3c(cc1Br)OCO3)n2CCC1CCN(C=O)CC1 [Example 1, 4-(2-[4-Amino-2-[(6-bromo-1,3-benzodioxol-5-yl)sulfanyl]-1H-imidazo[4,5-c]pyridin-1-yl]ethyl)piperidine-1-carbaldehyde] | 5.30 |
| C[C@H](O)C(=O)N1CCC(CCn2c(Sc3cc4c(cc3Br)OCO4)nc3c(N)nccc32)CC1 [Example 5, (2S)-1-[4-(2-{4-Amino-2-[(6-bromo-1,3-benzodioxol-5-yl)sulfanyl]-1H-imidazo[4,5-c]pyridin-1-yl}ethyl)piperidin-1-yl]-2-hydroxypropan-1-one] | 6.00 |
| CC(=O)O[C@@H](C)C(=O)N1CCC(CCn2c(Sc3cc4c(cc3N(C)C)OCO4)nc3c(N)nccc32)CC1 [Example 9, (2S)-1-[4-(2-{4-Amino-2-[(6-(dimethylamino)-1,3-benzodioxol-5-yl)sulfanyl]-1H-imidazo[4,5-c]pyridin-1-yl}ethyl)piperidin-1-yl]-1-oxopropan-2-yl acetate] | 7.10 |
| C[C@H](O)C(=O)N1CCC(CCn2c(Sc3cc4c(cc3N(C)C)OCO4)nc3c(N)nccc32)CC1 [Example 10, (2S)-1-[4-(2-{4-Amino-2-[(6-(dimethylamino)-1,3-benzodioxol-5-yl)sulfanyl]-1H-imidazo[4,5-c]pyridin-1-yl}ethyl)piperidin-1-yl]-2-hydroxypropan-1-one] | 6.96 |

Further compounds by rising pIC50, results first:

| pIC50 | Compound |
| --- | --- |
| 5.30 | CC(=O)N1CCC(CCn2c(Sc3cc4c(cc3Br)OCO4)nc3c(N)nccc32)CC1 [Example 2, 1-[4-(2-{4-Amino-2-[(6-bromo-1,3-benzodioxol-5-yl)sulfanyl]-1H-imidazo[4,5-c]pyridin-1-yl}ethyl)piperidin-1-yl]ethanone] |
| 5.62 | Nc1nccc2c1nc(Sc1cc3c(cc1Br)OCO3)n2CCc1ccccc1Cl [Example 3, 2-[(6-Bromo-1,3-benzodioxol-5-yl)sulfanyl]-1-[2-(2-chlorophenyl)ethyl]-1H-imidazo[4,5-c]pyridin-4-amine] |
| 6.96 | CN(C)c1cc2c(cc1Sc1nc3c(N)nccc3n1CCC1CCN(C=O)CC1)OCO2 [Example 8] |
